From the CheMixHub drug solubility set

Test: xn = mol fraction of the nth substance listed, in the solute-free solvent

CC(C)=CCCC(C)C1CCC2(C)C3=C(CCC12C)C1(C)CCC(O)C(C)(C)C1CC3 (centres undefined) + CO + O
solubility (g/100 g solution)
Details | 296.67 K | 306.81 K | 316.94 K | 328.97 K | 338.78 K
x2 = 0.0229 | 8.14e-06 | 1.37e-05 | 3.09e-05 | 6.98e-05 | 0.000153
x2 = 0.09675 | 8.15e-06 | 1.39e-05 | 3.32e-05 | 8.15e-05 | 0.000161
x2 = 0.3065 | 7.26e-06 | 1.51e-05 | 3.94e-05 | 8.99e-05 | 0.000193
x2 = 0.5109 | 0.00011 | 0.000197 | 0.000378 | 0.000796 | 0.00195
x2 = 0.8048 | 0.0189 | 0.0422 | 0.0785 | 0.161 | –

Nc1cccc(S(=O)(=O)c2cccc(N)c2)c1 + CO + O
solubility (g/100 g solution)
Details | 283.15 K | 288.15 K | 293.15 K | 298.15 K | 303.15 K | 308.15 K | 313.15 K | 318.15 K | 323.15 K | 328.15 K
x2 = 0.05881 | 0.0853 | 0.113 | 0.149 | 0.202 | 0.26 | 0.333 | 0.429 | 0.552 | 0.675 | 0.867
x2 = 0.1233 | 0.182 | 0.244 | 0.31 | 0.4 | 0.526 | 0.654 | 0.83 | 1.04 | 1.28 | 1.59
x2 = 0.1942 | 0.315 | 0.413 | 0.533 | 0.675 | 0.849 | 1.08 | 1.34 | 1.67 | 2.05 | 2.48
x2 = 0.2727 | 0.512 | 0.66 | 0.84 | 1.04 | 1.32 | 1.63 | 2 | 2.41 | 2.93 | 3.56
x2 = 0.3599 | 0.734 | 0.92 | 1.16 | 1.44 | 1.77 | 2.18 | 2.64 | 3.19 | 3.81 | 4.63
x2 = 0.4576 | 0.977 | 1.22 | 1.53 | 1.89 | 2.32 | 2.81 | 3.41 | 4.06 | 4.85 | 5.78
x2 = 0.5675 | 1.28 | 1.57 | 1.95 | 2.42 | 2.93 | 3.58 | 4.23 | 5.08 | 5.95 | 7.08
x2 = 0.6923 | 1.59 | 1.95 | 2.37 | 2.95 | 3.56 | 4.28 | 5.14 | 6.1 | 7.13 | 8.38
x2 = 0.835 | 1.93 | 2.32 | 2.83 | 3.42 | 4.15 | 4.97 | 5.91 | 6.97 | 8.2 | 9.54

OCCN(CCO)c1nc(N2CCCCC2)c2nc(N(CCO)CCO)nc(N3CCCCC3)c2n1 + CO + O
solubility (g/100 g solution)
Details | 293.15 K | 298.15 K | 303.15 K | 308.15 K | 313.15 K | 318.15 K | 323.15 K | 328.15 K
x2 = 0.3 | 0.0465 | 0.0712 | 0.121 | 0.178 | 0.281 | 0.39 | 0.543 | 0.757
x2 = 0.4 | 0.197 | 0.312 | 0.48 | 0.676 | 1.01 | 1.48 | 2.27 | 3.26
x2 = 0.5 | 0.513 | 0.826 | 1.16 | 1.64 | 2.54 | 3.82 | 6.13 | 9.01
x2 = 0.6 | 1.12 | 1.6 | 2.21 | 3.21 | 4.77 | 7.29 | 11.6 | 18
x2 = 0.7 | 1.8 | 2.43 | 3.45 | 5.11 | 7.41 | 11.5 | 17.4 | 26.3
x2 = 0.8 | 2.43 | 3.31 | 4.57 | 6.51 | 9.53 | 14.1 | 20.9 | 29.2
x2 = 0.9 | 2.81 | 3.85 | 5.46 | 7.53 | 10.9 | 15.8 | 22.7 | 31.9

c1ccc2[nH]c(-c3cscn3)nc2c1 + CO + O
solubility (g/100 g solution)
Details | 283.15 K | 288.15 K | 293.15 K | 298.15 K | 303.15 K | 308.15 K | 313.15 K | 318.15 K | 323.15 K
x2 = 0.05881 | 0.00229 | 0.00287 | 0.00369 | 0.00466 | 0.00574 | 0.00699 | 0.00862 | 0.0104 | 0.0128
x2 = 0.1233 | 0.0131 | 0.0159 | 0.0194 | 0.0238 | 0.0278 | 0.0335 | 0.0401 | 0.0473 | 0.0561
x2 = 0.1942 | 0.0339 | 0.0408 | 0.0481 | 0.0566 | 0.0663 | 0.0786 | 0.0909 | 0.105 | 0.122
x2 = 0.2727 | 0.0719 | 0.0844 | 0.101 | 0.119 | 0.139 | 0.161 | 0.187 | 0.216 | 0.246
x2 = 0.3599 | 0.131 | 0.154 | 0.181 | 0.206 | 0.242 | 0.278 | 0.317 | 0.364 | 0.412
x2 = 0.4576 | 0.21 | 0.243 | 0.283 | 0.328 | 0.368 | 0.419 | 0.477 | 0.541 | 0.616
x2 = 0.5675 | 0.329 | 0.373 | 0.425 | 0.486 | 0.554 | 0.62 | 0.697 | 0.779 | 0.874
x2 = 0.6923 | 0.478 | 0.542 | 0.614 | 0.69 | 0.779 | 0.87 | 0.967 | 1.07 | 1.19
x2 = 0.835 | 0.643 | 0.725 | 0.815 | 0.914 | 1.02 | 1.13 | 1.25 | 1.38 | 1.52

Cl.N=C(N)N + COCCO + CCCO
solubility (g/100 g solution)
Details | 278.15 K | 283.15 K | 288.15 K | 293.15 K | 298.15 K | 303.15 K | 308.15 K | 313.15 K | 318.15 K | 323.15 K
x2 = 0.08075 | 10.4 | 11.1 | 12.4 | 13.1 | 14.6 | 15.7 | 16.7 | 17.6 | 19.2 | 20.2
x2 = 0.253 | 17.4 | 18.7 | 20.1 | 20.9 | 21.8 | 23.2 | 24.1 | 24.9 | 25.7 | 26.9
x2 = 0.4413 | 23.9 | 24.8 | 25.9 | 26.6 | 27.7 | 28.3 | 29.1 | 30 | 30.9 | 31.4
x2 = 0.6479 | 29.4 | 30.1 | 30.7 | 31.8 | 32.2 | 33.2 | 33.8 | 34.3 | 35 | 35.6
x2 = 0.8768 | 32.5 | 33.2 | 34.3 | 34.9 | 35.8 | 36.6 | 37.1 | 38.3 | 38.9 | 39.5

Nc1ccc(Oc2ccc(N)cc2)cc1 + COCCO + CCO
solubility (g/100 g solution)
Details | 293.15 K | 298.15 K | 303.15 K | 308.15 K | 313.15 K | 318.15 K | 323.15 K | 328.15 K | 333.15 K
x2 = 0.06303 | 0.499 | 0.623 | 0.747 | 0.912 | 1.12 | 1.28 | 1.53 | 1.85 | 2.05
x2 = 0.1315 | 0.717 | 0.756 | 1.15 | 1.31 | 1.47 | 1.66 | 2.05 | 2.13 | 2.67
x2 = 0.206 | 1.06 | 1.1 | 1.51 | 1.67 | 1.81 | 2.26 | 2.59 | 2.89 | 3.33
x2 = 0.2875 | 1.41 | 1.52 | 2.06 | 2.16 | 2.37 | 2.9 | 3.32 | 3.5 | 4.01
x2 = 0.3771 | 1.82 | 2.06 | 2.54 | 2.67 | 3.1 | 3.47 | 4.03 | 4.26 | 4.95
x2 = 0.4759 | 2.25 | 2.54 | 3.08 | 3.31 | 3.71 | 4.25 | 4.81 | 4.96 | 5.85
x2 = 0.5855 | 2.84 | 3.2 | 3.71 | 4.1 | 4.42 | 5.1 | 5.68 | 6.03 | 6.84
x2 = 0.7077 | 3.66 | 3.97 | 4.45 | 4.86 | 5.25 | 6.05 | 6.65 | 7.22 | 7.97
x2 = 0.8449 | 4.52 | 4.75 | 5.33 | 5.75 | 6.21 | 6.99 | 7.7 | 8.23 | 9.05

Nc1[nH]c(=O)ncc1F + CS(C)=O + CC(C)O
solubility (g/100 g solution)
Details | 283.15 K | 288.15 K | 293.15 K | 298.15 K | 303.15 K | 308.15 K | 313.15 K | 318.15 K | 323.15 K
x2 = 0.0788 | 0.0921 | 0.111 | 0.133 | 0.162 | 0.192 | 0.228 | 0.268 | 0.315 | 0.37
x2 = 0.1614 | 0.168 | 0.202 | 0.237 | 0.282 | 0.331 | 0.386 | 0.451 | 0.526 | 0.615
x2 = 0.2481 | 0.248 | 0.291 | 0.341 | 0.401 | 0.466 | 0.543 | 0.625 | 0.717 | 0.826
x2 = 0.3392 | 0.336 | 0.388 | 0.451 | 0.521 | 0.606 | 0.693 | 0.798 | 0.914 | 1.05
x2 = 0.435 | 0.424 | 0.487 | 0.569 | 0.648 | 0.743 | 0.852 | 0.967 | 1.1 | 1.25
x2 = 0.5359 | 0.503 | 0.57 | 0.645 | 0.734 | 0.837 | 0.957 | 1.09 | 1.24 | 1.41
x2 = 0.6424 | 0.591 | 0.662 | 0.745 | 0.833 | 0.948 | 1.08 | 1.21 | 1.38 | 1.55
x2 = 0.7549 | 0.704 | 0.789 | 0.876 | 0.987 | 1.11 | 1.25 | 1.41 | 1.59 | 1.77
x2 = 0.8739 | 0.823 | 0.901 | 1 | 1.11 | 1.24 | 1.4 | 1.57 | 1.75 | 1.95

Nc1ccc(Oc2ccc(N)cc2)cc1 + CS(C)=O + CCO
solubility (g/100 g solution)
Details | 293.15 K | 298.15 K | 303.15 K | 308.15 K | 313.15 K | 318.15 K | 323.15 K | 328.15 K | 333.15 K
x2 = 0.06154 | 0.705 | 0.952 | 1.2 | 1.28 | 1.56 | 1.81 | 2.13 | 2.45 | 2.97
x2 = 0.1286 | 1.54 | 1.73 | 2.16 | 2.39 | 2.54 | 3.27 | 3.57 | 4.14 | 4.81
x2 = 0.2019 | 2.84 | 3.16 | 3.74 | 4.14 | 4.64 | 5.35 | 5.87 | 6.46 | 7.63
x2 = 0.2824 | 5.08 | 5.51 | 6.34 | 6.77 | 7.36 | 8.3 | 9.1 | 10.2 | 11.8
x2 = 0.3711 | 8.32 | 8.84 | 9.8 | 10.4 | 11.4 | 12.3 | 13.3 | 14.7 | 16.3
x2 = 0.4696 | 12.3 | 13.1 | 14.1 | 15 | 16 | 17.2 | 18.2 | 19.7 | 21.4
x2 = 0.5793 | 17 | 18.3 | 19.1 | 20.1 | 21 | 22.4 | 23.4 | 24.9 | 26.6
x2 = 0.7024 | 22 | 23.1 | 24 | 24.9 | 25.9 | 26.9 | 28.1 | 29.7 | 31.3
x2 = 0.8416 | 26.8 | 27.7 | 28.6 | 29.6 | 30.2 | 31.6 | 32.7 | 34.1 | 35.7
